Test results as given in US20230085307A1, “PYRIDAZINONE COMPOUND AND HERBICIDE” (NISSAN CHEMICAL CORPORATION, priority 2019, published 2023).

Key:
[1] = tested on: chickweed; assay: Test Example 4: herbicidal effect by soil treatment (Table 19, symbol P); type: in vivo, common chickweed (Stellaria media); conditions: amount of applied herbicide 320 g/ha
Method in brief: (§1)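 Scoring uses the grading scale of an earlier test, three weeks post-application. Treatment consists of spraying a diluted emulsion formulation across the surface of sterilized diluvial soil in which seeds are buried near 1.5 cm deep; boxes are kept in a greenhouse between 25° C. and 30° C.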

[2] = tested on: late watergrass; assay: Test Example 2: herbicidal activity, application during weed generation under submerged conditions (Table 17, symbol A); type: in vivo, late watergrass (Echinochloa oryzicola); conditions: AAH 320 g/ha; application during weed generation, submerged conditions
Method in brief: (§2)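 Effect on each weed is rated three weeks post-treatment, using the same scoring criteria as the preceding test. Plants grow from mixed-sown seed in flooded alluvial soil (4 cm water) at 25° C. to 30° C., and are treated at one to two leaves with diluted emulsion dropped onto the water.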

[3] = tested on: redroot pigweed; assay: Test Example 5: herbicidal effect by foliage application, plastic box (Table 20, symbol N); type: in vivo, redroot pigweed (Amaranthus retroflexus); conditions: for N: redroot pigweed, herbicidal effect grade: 320 g/ha, three weeks after application
Method in brief: (§3)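 Post-emergence foliar test in sterilized diluvial soil. Compound applied as water-diluted emulsion at a predetermined rate to 14-day-old plants; evaluation at three weeks.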

[4] = tested on: lambsquarters; assay: Test Example 5: herbicidal effect by foliage application, plastic box (Table 20, symbol O); type: in vivo, lambsquarters (Chenopodium album); conditions: for O: lambsquarters, herbicidal effect grade: 320 g/ha, three weeks after application
Method in brief: as §3

[5] = tested on: barnyard grass; assay: Test Example 4: herbicidal effect by soil treatment (Table 19, symbol H); type: in vivo, barnyard grass (Echinochloa crus-galli); conditions: amount of applied herbicide 320 g/ha
Method in brief: as §1

[6] = tested on: barnyard grass; assay: Test Example 3: herbicidal effect by foliage application, Wagner pot (Table 18, symbol H); type: in vivo, barnyard grass (Echinochloa crus-galli); conditions: for herbicidal effect on barnyard grass (H): 320 g/ha
Method in brief: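 Plants were sown in alluvial soil held under 0.1–0.5 cm standing water and grown 14 days in a greenhouse at 25–30 °C. An emulsifiable formulation, water-diluted to the set dose, was then sprayed onto the foliage, and effects were scored three weeks later using previously defined criteria.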

[7] = tested on: oval-leafed pondweed; assay: Test Example 1: herbicidal activity, application before weed generation under submerged conditions (Table 16, symbol C); type: in vivo, oval-leafed pondweed (Monochoria vaginalis); conditions: amount of applied herbicide 320 g/ha
Method in brief: (§4)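 Emulsion formulation, water-diluted to set dose, was put onto the flooded surface (4 cm depth, alluvial soil) the same day weeds were sown and 2.5-leaf rice transplanted. After 3 weeks at 25-30 °C under glass, each species was rated 0 (≤5% kill) to 5 (≥90% kill).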

[8] = tested on: southern crabgrass; assay: Test Example 4: herbicidal effect by soil treatment (Table 19, symbol F); type: in vivo, southern crabgrass (Digitaria ciliaris); conditions: amount of applied herbicide 320 g/ha
Method in brief: as §1

[9] = tested on: blackgrass; assay: Test Example 4: herbicidal effect by soil treatment (Table 19, symbol J); type: in vivo, blackgrass (Alopecurus myosuroides); conditions: amount of applied herbicide 320 g/ha
Method in brief: as §1

[10] = tested on: Japanese bulrush; assay: Test Example 1: herbicidal activity, application before weed generation under submerged conditions (Table 16, symbol B); type: in vivo, Japanese bulrush (Schoenoplectus juncoides); conditions: amount of applied herbicide 320 g/ha
Method in brief: as §4

[11] = tested on: wild oat; assay: Test Example 5: herbicidal effect by foliage application, plastic box (Table 20, symbol I); type: in vivo, wild oat (Avena fatua); conditions: for I: wild oat, herbicidal effect grade: 320 g/ha, three weeks after application
Method in brief: as §3

[12] = tested on: Japanese bulrush; assay: Test Example 2: herbicidal activity, application during weed generation under submerged conditions (Table 17, symbol B); type: in vivo, Japanese bulrush (Schoenoplectus juncoides); conditions: AAH 320 g/ha; application during weed generation, submerged conditions
Method in brief: as §2

[13] = tested on: persian speedwell; assay: Test Example 5: herbicidal effect by foliage application, plastic box (Table 20, symbol R); type: in vivo, Persian speedwell (Veronica persica); conditions: for R: persian speedwell, herbicidal effect grade: 320 g/ha, three weeks after application
Method in brief: as §3

[14] = tested on: blackgrass; assay: Test Example 5: herbicidal effect by foliage application, plastic box (Table 20, symbol J); type: in vivo, blackgrass (Alopecurus myosuroides); conditions: for J: blackgrass, herbicidal effect grade: 320 g/ha, three weeks after application
Method in brief: as §3

[15] = tested on: southern crabgrass; assay: Test Example 5: herbicidal effect by foliage application, plastic box (Table 20, symbol F); type: in vivo, southern crabgrass (Digitaria ciliaris); conditions: for F: southern crabgrass, herbicidal effect grade: 320 g/ha, three weeks after application
Method in brief: as §3

[16] = tested on: redroot pigweed; assay: Test Example 4: herbicidal effect by soil treatment (Table 19, symbol N); type: in vivo, redroot pigweed (Amaranthus retroflexus); conditions: amount of applied herbicide 320 g/ha
Method in brief: as §1

[17] = tested on: green foxtail; assay: Test Example 5: herbicidal effect by foliage application, plastic box (Table 20, symbol G); type: in vivo, green foxtail (Setaria viridis); conditions: for G: green foxtail, herbicidal effect grade: 320 g/ha, three weeks after application
Method in brief: as §3

[18] = foliage application, AAH 320 g/ha, evaluated three weeks after application
[19] = amount of applied herbicide 320 g/ha, foliage application after 14-day growth, evaluated three weeks after application

Row | SMILES | herbicidal effect rating, A: late watergrass [2] | Herbicidal effect, C: oval-leafed pondweed [7] | Herbicidal effect, B: Japanese bulrush [10] | herbicidal effect rating, B: Japanese bulrush [12] | P: chickweed, herbicidal effect grade [1] | N: redroot pigweed, herbicidal effect grade ([3]; foliage application) | O: lambsquarters, herbicidal effect grade ([4]; foliage application) | H: barnyard grass, herbicidal effect grade [5] | herbicidal effect on barnyard grass (H) [6] | F: southern crabgrass, herbicidal effect grade [8] | J: blackgrass, herbicidal effect grade [9] | I: wild oat, herbicidal effect grade ([11]; foliage application) | R: persian speedwell, herbicidal effect grade ([13]; foliage application) | J: blackgrass, herbicidal effect grade ([14]; foliage application) | F: southern crabgrass, herbicidal effect grade ([15]; foliage application) | N: redroot pigweed, herbicidal effect grade [16] | G: green foxtail, herbicidal effect grade ([17]; foliage application) | further results
1 | Cc1nn(C)c(=O)c(-c2c(-c3ccc4c(c3)OC(F)(F)O4)sc3ccc(F)cc23)c1O [2-392] | 2 (Herbicidal rate of 20% or more and less than 40%) | 0 (Herbicidal rate of 5% or less (almost no effect)) | 0 (Herbicidal rate of 5% or less (almost no effect)) | 0 (Herbicidal rate of 5% or less (almost no effect)) | – | – | – | – | – | – | – | – | – | – | – | – | – | herbicidal effect, P: chickweed [1]: 5 (Herbicidal rate of 90% or more (almost completely withered)); N: redroot pigweed, herbicidal effect (criteria 0-5) [3, 18]: 4 (Herbicidal rate of 70% or more and less than 90%); O: lambsquarters, herbicidal effect (criteria 0-5) [4, 18]: 5 (Herbicidal rate of 90% or more (almost completely withered)); herbicidal effect, H: barnyard grass [5]: 2 (Herbicidal rate of 20% or more and less than 40%); herbicidal effect on H: barnyard grass ([6]; amount of applied herbicide 320 g/ha): 5 (Herbicidal rate of 90% or more (almost completely withered)); herbicidal effect, F: southern crabgrass [8]: 2 (Herbicidal rate of 20% or more and less than 40%); herbicidal effect, J: blackgrass [9]: 0 (Herbicidal rate of 5% or less (almost no effect)); I: wild oat, herbicidal effect (criteria 0-5) [11, 18]: 4 (Herbicidal rate of 70% or more and less than 90%); R: persian speedwell, herbicidal effect (criteria 0-5) [13, 18]: 5 (Herbicidal rate of 90% or more (almost completely withered)); J: blackgrass, herbicidal effect (criteria 0-5) [14, 18]: 0 (Herbicidal rate of 5% or less (almost no effect)); F: southern crabgrass, herbicidal effect (criteria 0-5) [15, 18]: 4 (Herbicidal rate of 70% or more and less than 90%); herbicidal effect, N: redroot pigweed [16]: 3 (Herbicidal rate of 40% or more and less than 70%); G: green foxtail, herbicidal effect (criteria 0-5) [17, 18]: 3 (Herbicidal rate of 40% or more and less than 70%)
2 | COc1ccc2c(-c3c(O)c(C)nn(C)c3=O)c(-c3ccc(F)cc3OC)sc2c1 [3-076] | 3 (Herbicidal rate of 40% or more and less than 70%) | 5 (Herbicidal rate of 90% or more (almost completely withered)) | 5 (Herbicidal rate of 90% or more (almost completely withered)) | 4 (Herbicidal rate of 70% or more and less than 90%) | 2 (Herbicidal rate of 20% or more and less than 40%) | 5 (Herbicidal rate of 90% or more (almost completely withered)) | 5 (Herbicidal rate of 90% or more (almost completely withered)) | 3 (Herbicidal rate of 40% or more and less than 70%) | 5 (Herbicidal rate of 90% or more (almost completely withered)) | 0 (Herbicidal rate of 5% or less (almost no effect)) | 5 (Herbicidal rate of 90% or more (almost completely withered)) | 4 (Herbicidal rate of 70% or more and less than 90%) | 4 (Herbicidal rate of 70% or more and less than 90%) | 4 (Herbicidal rate of 70% or more and less than 90%) | 3 (Herbicidal rate of 40% or more and less than 70%) | 5 (Herbicidal rate of 90% or more (almost completely withered)) | 5 (Herbicidal rate of 90% or more (almost completely withered)) | –
3 | CCCC(=O)Oc1c(C)nn(C)c(=O)c1-c1c(-c2ccc(C#N)cc2)sc2cc(F)c(F)cc12 [5-026] | 2 (Herbicidal rate of 20% or more and less than 40%) | 0 (Herbicidal rate of 5% or less (almost no effect)) | 0 (Herbicidal rate of 5% or less (almost no effect)) | 0 (Herbicidal rate of 5% or less (almost no effect)) | 0 (Herbicidal rate of 5% or less (almost no effect)) | – | – | 0 (Herbicidal rate of 5% or less (almost no effect)) | 3 (Herbicidal rate of 40% or more and less than 70%) | 0 (Herbicidal rate of 5% or less (almost no effect)) | 0 (Herbicidal rate of 5% or less (almost no effect)) | – | – | – | – | 4 (Herbicidal rate of 70% or more and less than 90%) | – | Herbicidal effect by foliage application, N: redroot pigweed [3, 19]: 2 (Herbicidal rate of 20% or more and less than 40%); Herbicidal effect by foliage application, O: lambsquarters [4, 19]: 4 (Herbicidal rate of 70% or more and less than 90%); Herbicidal effect by foliage application, I: wild oat [11, 19]: 1 (Herbicidal rate of 5% or more and less than 20%); Herbicidal effect by foliage application, R: persian speedwell [13, 19]: 4 (Herbicidal rate of 70% or more and less than 90%); Herbicidal effect by foliage application, J: blackgrass [14, 19]: 0 (Herbicidal rate of 5% or less (almost no effect)); Herbicidal effect by foliage application, F: southern crabgrass [15, 19]: 0 (Herbicidal rate of 5% or less (almost no effect)); Herbicidal effect by foliage application, G: green foxtail [17, 19]: 0 (Herbicidal rate of 5% or less (almost no effect))
4 | COc1ccccc1-c1sc2cc(OC(F)F)ccc2c1-c1c(O)c(C)nn(C)c1=O [3-113] | 0 (Herbicidal rate of 5% or less (almost no effect)) | 2 (Herbicidal rate of 20% or more and less than 40%) | 3 (Herbicidal rate of 40% or more and less than 70%) | 2 (Herbicidal rate of 20% or more and less than 40%) | 5 (Herbicidal rate of 90% or more (almost completely withered)) | 5 (Herbicidal rate of 90% or more (almost completely withered)) | 5 (Herbicidal rate of 90% or more (almost completely withered)) | 5 (Herbicidal rate of 90% or more (almost completely withered)) | 5 (Herbicidal rate of 90% or more (almost completely withered)) | 4 (Herbicidal rate of 70% or more and less than 90%) | 4 (Herbicidal rate of 70% or more and less than 90%) | 4 (Herbicidal rate of 70% or more and less than 90%) | 5 (Herbicidal rate of 90% or more (almost completely withered)) | 5 (Herbicidal rate of 90% or more (almost completely withered)) | 1 (Herbicidal rate of 5% or more and less than 20%) | 5 (Herbicidal rate of 90% or more (almost completely withered)) | 5 (Herbicidal rate of 90% or more (almost completely withered)) | –
